# In US11377442B2, “Small molecule agonists and antagonists of NR2F6 activity” (ZANDER THERAPEUTICS, INC., priority 2016, dated 2022):
# Where two headings read alike, the source gives them in different places.
# Key:
# Format in all cases: cell-based
# [1] = test system: HEK293 pGL4; test: Firefly_pGL signal, cmpd/DMSO (pGL4 control cells); details: Homo sapiens
# [2] = molecular target: T1, NR2F6 (Homo sapiens, UniProt P10588); test: NR2F6 agonist screening, Firefly signal cmpd/DMSO
# T1 construct: expressed in transfected cells; also transient transfection
# T1 sequence (P10588 1-404): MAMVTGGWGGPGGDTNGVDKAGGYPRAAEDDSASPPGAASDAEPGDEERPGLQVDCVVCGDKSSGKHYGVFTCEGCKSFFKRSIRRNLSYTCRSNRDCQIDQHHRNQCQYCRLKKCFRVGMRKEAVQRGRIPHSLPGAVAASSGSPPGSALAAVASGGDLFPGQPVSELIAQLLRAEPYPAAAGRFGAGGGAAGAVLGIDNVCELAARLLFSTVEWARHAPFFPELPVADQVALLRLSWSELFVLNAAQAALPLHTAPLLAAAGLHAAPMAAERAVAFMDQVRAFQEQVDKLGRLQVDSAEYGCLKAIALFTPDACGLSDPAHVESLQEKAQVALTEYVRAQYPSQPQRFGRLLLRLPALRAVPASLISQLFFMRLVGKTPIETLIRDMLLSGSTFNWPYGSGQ
# [3] = test system: Renilla; test: Renilla signal in NR2F6 agonist screening, cmpd/DMSO; details: Renilla
# [4] = molecular target: T2, NR2F6 LBD (Homo sapiens, UniProt P10588); test: NR2F6 LBD transient transfection
# T2 construct: expressed in transfected cells
# T2 sequence (P10588 165-393 limits assumed): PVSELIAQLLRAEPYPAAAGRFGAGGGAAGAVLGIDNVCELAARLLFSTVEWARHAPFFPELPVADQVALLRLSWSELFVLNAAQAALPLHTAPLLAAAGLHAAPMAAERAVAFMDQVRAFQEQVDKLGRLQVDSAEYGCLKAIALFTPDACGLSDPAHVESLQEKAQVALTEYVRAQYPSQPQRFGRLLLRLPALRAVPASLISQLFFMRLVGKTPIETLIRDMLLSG
# Method in brief: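 LBD-transfected cells treated at 40, 10, 2 and 0.5 μM (4 replicates); cytotoxicity measured in parallel, normalized to DMSO (0%) and zero signal (100%). Higher concentrations excluded where signal loss reflected toxicity.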
# [5] = test system: Renilla; test: Renilla signal, LBD, cmpd/DMSO (NR2F6 LBD transfected cells)
# [6] = read-out: Renilla F4, cmpd/DMSO (mean)
# [7] = F4, 1% FBS, read-out: Renilla, F4, 1% FBS, cmpd/DMSO (mean)
# [8] = F4, 10% FBS, read-out: Renilla, F4, 10% FBS, cmpd/DMSO (mean)
smiles,measurement,setting,value
CC(C)OCCCN[C@H]1CS(=O)(=O)C[C@@H]1S(=O)(=O)c1ccc(Cl)cc1 [Compound D138],fold induction at 0.5 µM,"[1]; HEK293, 0.5 uM, read-out: Firefly pGL4, cmpd/DMSO (mean)",0.9
same,fold induction at 2 µM,"[1]; HEK293, 2 uM, read-out: Firefly pGL4, cmpd/DMSO (mean)",0.9
same,fold induction at 10 µM,"[1]; HEK293, 10 uM, read-out: Firefly pGL4, cmpd/DMSO (mean)",1.5
same,fold induction at 40 µM,"[1]; HEK293, 40 uM, read-out: Firefly pGL4, cmpd/DMSO (mean)",1.5
same,fold induction at 0.5 µM,"[1]; HEK293, pGL4, 1% FBS, 0.5 uM, read-out: Firefly, pGL4, 1% FBS, cmpd/DMSO (mean)",1
same,fold induction at 2 µM,"[1]; HEK293, pGL4, 1% FBS, 2 uM, read-out: Firefly, pGL4, 1% FBS, cmpd/DMSO (mean)",1
same,fold induction at 10 µM,"[1]; HEK293, pGL4, 1% FBS, 10 uM, read-out: Firefly, pGL4, 1% FBS, cmpd/DMSO (mean)",1.6
same,fold induction at 40 µM,"[1]; HEK293, pGL4, 1% FBS, 40 uM, read-out: Firefly, pGL4, 1% FBS, cmpd/DMSO (mean)",1.7
same,fold induction at 0.5 µM,"[1]; HEK293, pGL4, 10% FBS, 0.5 uM, read-out: Firefly, pGL4, 10% FBS, cmpd/DMSO (mean)",1.1
same,fold induction at 2 µM,"[1]; HEK293, pGL4, 10% FBS, 2 uM, read-out: Firefly, pGL4, 10% FBS, cmpd/DMSO (mean)",1
same,fold induction at 10 µM,"[1]; HEK293, pGL4, 10% FBS, 10 uM, read-out: Firefly, pGL4, 10% FBS, cmpd/DMSO (mean)",1.7
same,fold induction at 40 µM,"[1]; HEK293, pGL4, 10% FBS, 40 uM, read-out: Firefly, pGL4, 10% FBS, cmpd/DMSO (mean)",3.6
same,"Firefly F4, cmpd/DMSO (mean)",[2]; 0.5 uM,1.0
same,"Firefly F4, cmpd/DMSO (mean)",[2]; 2 uM,1.1
same,"Firefly F4, cmpd/DMSO (mean)",[2]; 10 uM,2.6
same,"Firefly F4, cmpd/DMSO (mean)",[2]; 40 uM,1.7
same,"F4, Firefly/Renilla for S/B(F4) > 3","[2]; 1% FBS, 10 uM",2.2
same,"Firefly, F4/pGL4 for S/B(F4) > 3","[2]; 1% FBS, 10 uM",2.7
same,"F4, Firefly/Renilla for S/B(F4) > 3","[2]; 1% FBS, 40 uM",1.1
same,"Firefly, F4/pGL4 for S/B(F4) > 3","[2]; 1% FBS, 40 uM",1.9
same,"F4, Firefly/Renilla for S/B(F4) > 3","[2]; 10% FBS, 10 uM",1.6
same,"Firefly, F4/pGL4 for S/B(F4) > 3","[2]; 10% FBS, 10 uM",1.8
same,"F4, Firefly/Renilla for S/B(F4) > 3","[2]; 10% FBS, 40 uM",3.2
same,"Firefly, F4/pGL4 for S/B(F4) > 3","[2]; 10% FBS, 40 uM",3.2
same,"Firefly, F4, 1% FBS, cmpd/DMSO (mean)","[2]; 1% FBS, 0.5 uM",0.8
same,"Firefly, F4, 1% FBS, cmpd/DMSO (mean)","[2]; 1% FBS, 2 uM",1.9
same,"Firefly, F4, 1% FBS, cmpd/DMSO (mean)","[2]; 1% FBS, 10 uM",4.2
same,"Firefly, F4, 1% FBS, cmpd/DMSO (mean)","[2]; 1% FBS, 40 uM",3.3
same,"Firefly, F4, 10% FBS, cmpd/DMSO (mean)","[2]; 10% FBS, 0.5 uM",1.8
same,"Firefly, F4, 10% FBS, cmpd/DMSO (mean)","[2]; 10% FBS, 2 uM",1.3
same,"Firefly, F4, 10% FBS, cmpd/DMSO (mean)","[2]; 10% FBS, 10 uM",3.1
same,"Firefly, F4, 10% FBS, cmpd/DMSO (mean)","[2]; 10% FBS, 40 uM",12
same,fold induction at 0.5 µM,[3]; [6],0.8
same,fold induction at 2 µM,[3]; [6],1
same,fold induction at 10 µM,[3]; [6],1.2
same,fold induction at 40 µM,[3]; [6],2.3
same,fold induction at 0.5 µM,[3]; [7],1.3
same,fold induction at 2 µM,[3]; [7],1.4
same,fold induction at 10 µM,[3]; [7],1.9
same,fold induction at 40 µM,[3]; [7],2.9
same,fold induction at 0.5 µM,[3]; [8],1.4
same,fold induction at 2 µM,[3]; [8],1.4
same,fold induction at 10 µM,[3]; [8],2
same,fold induction at 40 µM,[3]; [8],3.6
same,"Firefly LBD, cmpd/DMSO (mean)",[4]; 0.5 uM,1.3
same,"Firefly LBD, cmpd/DMSO (mean)",[4]; 2 uM,1.8
same,"Firefly LBD, cmpd/DMSO (mean)",[4]; 10 uM,3.7
same,"Firefly LBD, cmpd/DMSO (mean)",[4]; 40 uM,0.4
same,"Renilla LBD, cmpd/DMSO (mean)",[5]; 0.5 uM,0.9
same,"Renilla LBD, cmpd/DMSO (mean)",[5]; 2 uM,1.1
same,"Renilla LBD, cmpd/DMSO (mean)",[5]; 10 uM,0.9
same,"Renilla LBD, cmpd/DMSO (mean)",[5]; 40 uM,0.3
